What was measured:
human mAChR M1 [1] = target: T1, human mAChR M1 (Homo sapiens, UniProt P11229); experiment: mAChR M1 cell-based functional assay (calcium mobilization), agonist activity upon compound addition; details: CHO-K1 cells expressing hM1; for EC50: compound alone, before acetylcholine addition; for Emax: relative to the maximum for acetylcholine
T1 construct: host or cells: CHO-K1 cells (ATCC), stably transfected using Lipofectamine2000
T1 sequence (P11229 1-460): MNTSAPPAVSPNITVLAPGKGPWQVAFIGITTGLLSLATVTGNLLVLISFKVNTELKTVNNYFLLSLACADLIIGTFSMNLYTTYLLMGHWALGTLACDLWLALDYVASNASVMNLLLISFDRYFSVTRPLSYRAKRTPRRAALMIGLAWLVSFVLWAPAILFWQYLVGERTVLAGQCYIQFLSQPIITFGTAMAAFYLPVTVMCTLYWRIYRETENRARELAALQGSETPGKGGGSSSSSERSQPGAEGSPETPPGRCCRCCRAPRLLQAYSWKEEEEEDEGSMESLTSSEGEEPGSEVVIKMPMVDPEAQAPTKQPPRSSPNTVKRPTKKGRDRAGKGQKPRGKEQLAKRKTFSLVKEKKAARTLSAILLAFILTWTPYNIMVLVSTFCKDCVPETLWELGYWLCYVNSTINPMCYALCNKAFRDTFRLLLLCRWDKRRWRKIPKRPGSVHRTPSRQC
Description: (§1) Chinese hamster ovary (CHO-K1) cells stably expressing rat (r)M1 were purchased from the American Type Culture Collection and cultured according to their indicated protocol. CHO cells stably expressing human (h)M2, hM3, and hM5 were described previously (Levey, et al., 1991); hM1 and hM4 cDNAs were purchased from Missouri S&T cDNA Resource; rM4 cDNA was provided by T. L. Bonner (National Institutes of Health, Bethesda, MID). rM2 and rM3 were cloned from a rat brain cDNA library and sequence verified. hM1, rM2, rM3, hM4, and rM4 cDNAs were used to stably transfect CHO-K1 cells purchased from the American Type Culture Collection using Lipofectamine2000. To make stable rM2, hM2, rM3, hM4, and rM4 cell lines for use in calcium mobilization assays, these cells also were stably transfected with a chimeric G-protein (Gqi5) (provided by B. R. Conklin, University of California, San Francisco) using Lipofectamine 2000. rM1, hM1, rM3, hM3, rM5, and hM5 cells were grown in Ham's F-12 medium containing 10% heat-inactivated fetal bovine serum (FBS), 20 mM HEPES, and 50 μg/mL G418 sulfate. rM2-Gq15, hM2-Gqi5, and hM4-Gqi5 cells were grown in the same medium also containing 500 μg/mL Hygromycin B. Stable rM4-Gqi5 cells were grown in DMEM containing 10% heat-inactivated FBS, 20 mM HEPES, 400 μg/mL G418 sulfate, and 500 μg/mL Hygromycin B.
(§2) For high throughput measurement of agonist-evoked increases in intracellular calcium, CHO-K1 cells stably expressing muscarinic receptors were plated in growth medium lacking G418 and hygromycin at 15,000 cells/20 μL/well in Greiner 384-well black-walled, tissue culture (TC)-treated, clear-bottom plates (VWR). Cells were incubated overnight at 37° C. and 5% CO2. The next day, cells were washed using an ELX 405 (BioTek) with four washes (80 μL) of assay buffer then aspirated to 20 μL. Next, 20 μL of 16 μM Fluo-4/acetoxymethyl ester (Invitrogen, Carlsbad, Calif.) prepared as a 2.3 mM stock in DMSO and mixed in a 1:1 ratio with 10% (w/v) Pluronic F-127 and diluted in assay buffer was added to the wells and the cell plates were incubated for 50 min at 37° C. and 5% CO2. Dye was removed by washing with the ELX 405 (four 80 μL washes of assay buffer) then aspirated to 20 μL. Compound master plates were formatted in an 11 point CRC format (1:3 dilutions) in 100% DMSO with a starting concentration of 10 mM using the BRAVO liquid handler (Agilent). Test compound CRCs were then transferred to daughter plates (240 nL) using the Echo acoustic plate reformatter (Labcyte, Sunnyvale, Calif.) and then diluted into assay buffer (40 μL) to a 2× stock using a Thermo Fisher Combi (Thermo Fisher Scientific, Waltham, Mass.).
(§3) Calcium flux was measured using the Functional Drug Screening System (FDSS) 6000 (Hamamatsu Corporation, Tokyo, Japan) as an increase in the fluorescent static ratio. Compounds were applied to cells (20 μL, 2×) using the automated system of the FDSS 6000 at 4 s into the 300 s protocol and the data were collected at 1 Hz. At 144 s into the 300s protocol, 10 μL of an EC20 concentration of the muscarinic receptor agonist acetylcholine was added (5×), followed by the addition of 12 μL an EC80 concentration of acetylcholine at the 230 s time point (5×). Agonist activity was analyzed as a concentration-dependent increase in calcium mobilization upon compound addition. Emax values for agonist activity are expressed relative to the maximum for acetylcholine. Positive allosteric modulator activity was analyzed as a concentration-dependent increase in the EC20 acetylcholine response. Antagonist activity was analyzed as a concentration-dependent decrease in the EC80 acetylcholine response. Concentration-response curves were generated using a four-parameter logistical equation in XLfit curve fitting software (IDBS, Bridgewater, N.J.) for Excel (Microsoft, Redmond, Wash.) or Prism (GraphPad Software, Inc., San Diego, Calif.). […]

human mAChR M1 [2] = target: T1, human mAChR M1; experiment: mAChR M1 cell-based functional assay (calcium mobilization), PAM activity: increase in the EC20 acetylcholine response; details: CHO-K1 cells expressing hM1; potentiation of EC20 acetylcholine response
Description: as §1, §2, §3

SMILES	EC50 (human mAChR M1 [1]) [µM]	Emax (human mAChR M1 [1]) [%]	EC50 (human mAChR M1 [2]) [µM]	Emax (human mAChR M1 [2]) [%]
Cn1ccc(-c2ccc(Cn3cc(C(=O)N[C@H]4CCCC[C@@H]4O)c4ncccc4c3=O)c(F)c2)n1 [Compound A2, 6-(2-fluoro-4-(1-methyl-1H-pyrazol-3-yl)benzyl)-N-((1S,2S)-2-hydroxycyclohexyl)-5-oxo-5,6-dihydro-1,6-naphthyridine-8-carboxamide]	> 10	< 5	0.73	91
Cn1ccc(-c2ccc(Cn3cc(C(=O)N[C@H]4CCOC[C@@H]4O)c4ncccc4c3=O)c(F)c2)n1 [Compound A1, 6-(2-Fluoro-4-(1-methyl-1H-pyrazol-3-yl)benzyl)-N-((3R,4S)-3-hydroxytetrahydro-2H-pyran-4-yl)-5-oxo-5,6-dihydro-1,6-naphthyridine-8-carboxamide]	7.9	20	0.48	90
Cn1cc(-c2ccc(Cn3cc(C(=O)N[C@H]4CCOC[C@@H]4O)c4ncccc4c3=O)c(F)c2)cn1 [Compound A6, 6-(2-fluoro-4-(1-methyl-1H-pyrazol-4-yl)benzyl)-N-((3R,4S)-3-hydroxytetrahydro-2H-pyran-4-yl)-5-oxo-5,6-dihydro-1,6-naphthyridine-8-carboxamide]	8.2	23	0.22	89
Cn1cc(-c2ccc(Cn3cc(C(=O)N[C@H]4CCCC[C@@H]4O)c4ncncc4c3=O)c(F)c2)cn1 [Compound A89, 6-(2-fluoro-4-(1-methyl-1H-pyrazol-4-yl)benzyl)-N-((1S,2S)-2-hydroxycyclohexyl)-5-oxo-5,6-dihydropyrido[4,3-d]pyrimidine-8-carboxamide]	> 10	< 5	≥ 10	51
Cn1cc(-c2ccc(Cn3cc(C(=O)N[C@H]4CCCCC[C@@H]4O)c4nccnc4c3=O)c(F)c2)cn1 [Compound A78, 6-(2-fluoro-4-(1-methyl-1H-pyrazol-4-yl)benzyl)-N-((1S,2S)-2-hydroxycycloheptyl)-5-oxo-5,6-dihydropyrido[3,4-b]pyrazine-8-carboxamide]	–	5	2.98	67
Cn1cc2c(-c3cc(F)c(Cn4cc(C(=O)N[C@H]5CCCCC[C@@H]5O)c5ncccc5c4=O)c(F)c3)cccc2n1 [Compound A23, 6-(2,6-difluoro-4-(2-methyl-2H-indazol-4-yl)benzyl)-N-((1S,2S)-2-hydroxycycloheptyl)-5-oxo-5,6-dihydro-1,6-naphthyridine-8-carboxamide]	> 10	< 5	0.21	67
O=C(N[C@H]1CCCC[C@@H]1O)c1cn(Cc2ccc(-c3cscn3)cc2)c(=O)c2cccnc12 [Compound A59, N-((1S,2S)-2-hydroxycyclohexyl)-5-oxo-6-(4-(thiazol-4-yl)benzyl)-5,6-dihydro-1,6-naphthyridine-8-carboxamide]	> 10	< 5	0.42	45

Results, then the compound that gave them:

EC50 (human mAChR M1 [1]) [µM]	Emax (human mAChR M1 [1]) [%]	EC50 (human mAChR M1 [2]) [µM]	Emax (human mAChR M1 [2]) [%]	SMILES
2.79	63	0.24	51	Cn1cc2c(-c3cc(F)c(Cn4cc(C(=O)N[C@H]5CCCC[C@@H]5O)c5nccn5c4=O)c(F)c3)cccc2n1 [Compound B20, 6-(2,6-difluoro-4-(2-methyl-2H-indazol-4-yl)benzyl)-N-((1S,2S)-2-hydroxycyclohexyl)-5-oxo-5,6-dihydroimidazo[1,2-c]pyrimidine-8-carboxamide]
3.7	60	0.096	68	Cn1ccc(-c2ccc(Cn3cc(C(=O)N[C@H]4CCCC[C@@H]4O)c4nccn4c3=O)c(F)c2)n1 [Compound B2, 6-(2-fluoro-4-(1-methyl-1H-pyrazol-3-yl)benzyl)-N-((1S,2S)-2-hydroxycyclohexyl)-5-oxo-5,6-dihydroimidazo[1,2-c]pyrimidine-8-carboxamide]
> 10	< 5	7.73	40	Cn1cc2c(-c3cc(F)c(Cn4cc(C(=O)N[C@H]5CCC[C@@H]5O)c5sccc5c4=O)c(F)c3)cccc2n1 [Compound D32, 5-(2,6-difluoro-4-(2-methyl-2H-indazol-4-yl)benzyl)-N-((1S,2S)-2-hydroxycyclopentyl)-4-oxo-4,5-dihydrothieno[3,2-c]pyridine-7-carboxamide]
> 10	< 5	5.89	27	Cc1cn2c(=O)n(Cc3c(F)cc(-c4cccc5nn(C)cc45)cc3F)cc(C(=O)N[C@H]3CCCC[C@@H]3O)c2n1 [Compound B30, 6-(2,6-difluoro-4-(2-methyl-2H-indazol-4-yl)benzyl)-N-((1S,2S)-2-hydroxycyclohexyl)-2-methyl-5-oxo-5,6-dihydroimidazo[1,2-c]pyrimidine-8-carboxamide]
> 10	< 5	4.31	40	Cc1cn2c(=O)n(Cc3c(F)cc(-c4cccc5nn(C)cc45)cc3F)cc(C(=O)N[C@H]3CCOC[C@@H]3O)c2n1 [Compound B29, 6-(2,6-difluoro-4-(2-methyl-2H-indazol-4-yl)benzyl)-N-((3R,4S)-3-hydroxytetrahydro-2H-pyran-4-yl)-2-methyl-5-oxo-5,6-dihydroimidazo[1,2-c]pyrimidine-8-carboxamide]
> 10	24	0.47	83	O=C(N[C@H]1CCOC[C@@H]1O)c1cn(Cc2ccc(-c3cscn3)cc2)c(=O)n2ccnc12 [Compound B17, N-((3R,4S)-3-hydroxytetrahydro-2H-pyran-4-yl)-5-oxo-6-(4-(thiazol-4-yl)benzyl)-5,6-dihydroimidazo[1,2-c]pyrimidine-8-carboxamide]
–	8	0.25	65	Cn1ccc(-c2ccc(Cn3cc(C(=O)N[C@H]4CCCC[C@@H]4O)c4ncn(C)c4c3=O)c(F)c2)n1 [Compound C1, 5-(2-Fluoro-4-(1-methyl-1H-pyrazol-3-yl)benzyl)-N-((1S,2S)-2-hydroxycyclohexyl)-3-methyl-4-oxo-4,5-dihydro-3H-imidazo[4,5-c]pyridine-7-carboxamide]
> 10	< 5	> 10	29	Cn1cc(-c2ccc(Cn3cc(C(=O)N[C@@H]4CC[C@H]4O)c4occc4c3=O)c(F)c2)cn1 (stereo in doubt) [Compound D15, 5-(2-fluoro-4-(1-methyl-1H-pyrazol-4-yl)benzyl)-N-((1R,2R)-2-hydroxycyclobutyl)-4-oxo-4,5-dihydrofuro[3,2-c]pyridine-7-carboxamide]
